Test results taken from patent US20070197446A1, “MHC binding peptides and their uses” (ProImmune Limited, priority 2006, published 2007).

Tests used:
Type in all cases: binding
HLA-B*3501 = HLA-B*3501 (Homo sapiens, UniProt P01889, A329T/A93T/A95T/C349S/D201E/D98Y/E176V/E187L/E204Q/E69T/I218V/K202T/L119I/Q94N/R155S/R180L/S121R/S35A/S48A/T118I/V127L/V306I/V36M/Y140S/Y91F)
HLA-A*0201 = HLA-A*0201 (Homo sapiens, UniProt P04439, D140Y/D185E/D98H/E176V/E277Q/G131W/G231S/I119V/I121R/I166T/I218V/L300P/L318F/N151K/N90K/P208A/P217A/Q86G/Q94H/R138H/R169H/T345S)
HLA-B*0801 = HLA-B*0801 (Homo sapiens, UniProt P01889, A93T/A95T/D138N/E176V/E187T/K202T/Q94N/R180D/S35A/V36M/Y33D/Y91F)
HLA-A*0101 = HLA-A*0101 (Homo sapiens, UniProt P04439, A114D/A174V/A182V/D101N/D185E/E176A/E190D/L180R/Q94H/R68K/S129P/T187R/V100A/V91M/W191G)
HLA-A*0301 = HLA-A*0301 (Homo sapiens, UniProt P04439)
HLA-B*0702 = HLA-B*0702 (Homo sapiens, UniProt P01889)

Sequence | ELISA (Absorption-Pass/Fail Control) (HLA-A*0201) | ELISA (Absorption-Pass/Fail Control) (HLA-B*0801) | other results
AGWLLGNPM [SEQ ID NO: 42] |  |  | ELISA (Absorption-Pass/Fail Control) (HLA-B*3501): −0.06
AIVSLVKSD [SEQ ID NO: 14] | 0.43 |  | 
AQDILEKKH [SEQ ID NO: 21] | 0.15 |  | 
DILEKKHNG [SEQ ID NO: 34] |  | 0.53 | 
DTIMEKNVT [SEQ ID NO: 32] |  | 0.08 | 
FAIVSLVKS [SEQ ID NO: 13] | 0.07 |  | 
FINVPEWSY [SEQ ID NO: 10] |  |  | ELISA (Absorption-Pass/Fail Control) (HLA-A*0101): 0.16; ELISA (Absorption-Pass/Fail Control) (HLA-B*3501): 0.57
GNPMCDEFI [SEQ ID NO: 39] |  | 0.04 | 
HANNSTEQV [SEQ ID NO: 17] | 0.43 |  | ELISA (Absorption-Pass/Fail Control) (HLA-B*3501): 0.43
HPVGEADYFEY (T cell epitope) [SEQ ID NO: 8, reference compound] |  |  | ELISA (Absorption-Pass/Fail Control) (HLA-B*3501): 0.55; efficiency of binding to HLA-B*3501 (in words) (HLA-B*3501): high efficiency
ILEKKHNGK [SEQ ID NO: 28] |  | 0.95 | ELISA (Absorption-Pass/Fail Control) (HLA-A*0301): −0.01
ILRDCSVAG [SEQ ID NO: 30] |  |  | ELISA (Absorption-Pass/Fail Control) (HLA-B*0702): 0.03
ILRGSVAHK (T cell epitope) [SEQ ID NO: 5, reference compound] |  |  | ELISA (Absorption-Pass/Fail Control) (HLA-A*0301): 1.19; efficiency of binding to HLA-A*0301 (in words) (HLA-A*0301): high efficiency
IMEKNVTVT [SEQ ID NO: 19] | 0.02 |  | 
IVSLVKSDQ [SEQ ID NO: 15] | 0.04 |  | 
KKHNGKLCD [SEQ ID NO: 41] |  |  | ELISA (Absorption-Pass/Fail Control) (HLA-B*3501): −0.05
KLCDLDGVK [SEQ ID NO: 22] | 0.20 |  | ELISA (Absorption-Pass/Fail Control) (HLA-A*0301): 1.16
KPLILRDCS [SEQ ID NO: 35] |  | 0.10 | 
KSDQICIGY [SEQ ID NO: 9] |  |  | ELISA (Absorption-Pass/Fail Control) (HLA-A*0101): 0.47; ELISA (Absorption-Pass/Fail Control) (HLA-A*0301): 0.05
LFAIVSLVK [SEQ ID NO: 40] |  |  | ELISA (Absorption-Pass/Fail Control) (HLA-B*3501): 0.10

Sequence | ELISA (Absorption-Pass/Fail Control) (HLA-A*0201) | ELISA (Absorption-Pass/Fail Control) (HLA-B*0801) | other results
LGNPMCDEF [SEQ ID NO: 43] |  |  | ELISA (Absorption-Pass/Fail Control) (HLA-B*3501): 0.35
LILRDCSVA [SEQ ID NO: 23] | 0.57 | 0.07 | 
LLFAIVSLV [SEQ ID NO: 12] | 1.06 |  | 
LVKSDQICI [SEQ ID NO: 29] |  |  | ELISA (Absorption-Pass/Fail Control) (HLA-B*3501): 0.04; ELISA (Absorption-Pass/Fail Control) (HLA-B*0702): −0.06
MEKNVTVTH [SEQ ID NO: 20] | −0.02 |  | 
NVPEWSYIV [SEQ ID NO: 25] | 1.03 |  | 
NVTVTHAQD [SEQ ID NO: 27] |  | 0.08 | ELISA (Absorption-Pass/Fail Control) (HLA-A*0301): −0.04
PLILRDCSV [SEQ ID NO: 36] |  | 0.65 | 
PMCDEFINV [SEQ ID NO: 24] | 0.98 |  | 
SLVKSDQIC [SEQ ID NO: 16] | 0.09 |  | ELISA (Absorption-Pass/Fail Control) (HLA-B*3501): −0.03
TIMEKNVTV [SEQ ID NO: 18] | 0.99 | 0.80 | ELISA (Absorption-Pass/Fail Control) (HLA-B*0702): 0.00
TPRVTGGGAM (T cell epitope) [SEQ ID NO: 6, reference compound] |  |  | ELISA (Absorption-Pass/Fail Control) (HLA-B*0702): 0.88; efficiency of binding to HLA-B*0702 (in words) (HLA-B*0702): high efficiency
VAGWLLGNP [SEQ ID NO: 37] |  | 0.04 | 
VLLFAIVSL [SEQ ID NO: 11] | 0.47 |  | 
VSLVKSDQI [SEQ ID NO: 31] |  | 0.36 | 
VTHAQDILE [SEQ ID NO: 33] |  | 0.31 | 
WLLGNPMCD [SEQ ID NO: 38] |  | 0.03 | 
YIVEKANPV [SEQ ID NO: 26] | 1.02 | 0.32 | ELISA (Absorption-Pass/Fail Control) (HLA-B*0702): 0.11
YSEHPFTSQY (T cell epitope) [SEQ ID NO: 2, reference compound] |  |  | ELISA (Absorption-Pass/Fail Control) (HLA-A*0101): 0.58; efficiency of binding to HLA-A*0101 (in words) (HLA-A*0101): high efficiency
